How the values were obtained:
[1] = Stability to oxidation conditions (melting points under nitrogen and oxygen atmosphere); assay type: physicochemical
Experimental: Melting points of the above salts were also determined under nitrogen and oxygen atmosphere, in order to verify their stability to oxidation conditions.

[2] = Aqueous solubility at 23° C.; assay type: physicochemical; settings: water
Text: The use of 1-[3-[3-(4-chlorophenyl)propoxy]propyl]-piperidine as the free base is limited because of its oily nature.

mice = assay: Natural forgetting, two-trial object recognition; assay type: in vivo, mouse; settings: tacrine 0.25 mg/kg, i.p. after T1
Experimental: Methods: Mice were submitted to the first trial (T1), placed in the box containing two identical objects and the time required by each animal to complete 8 sec of object exploration was determined. Exploration was considered to be directing the nose at a distance closer than 2 cm to the object and/or touching the object. Immediately after the first trial mice were treated with the vehicle or tacrine (0.25 mg/kg, i.p.). […] Mice were placed in the box for 5 min and exploration of each object together with motor activity was determined. The following parameters were measured: […]

[3] = Solubility of salts in water at room temperature, pH 4.5 and pH 7.4

Molecule | Melting point, N2 atmosphere (stability to oxidation conditions) [1] [°C] | Melting point, O2 atmosphere (stability to oxidation conditions) [1] [°C] | solubility [2] [mg/mL] | solubility (physchem; pH 4.5, aqueous buffer) [mg/mL] | solubility (physchem; pH 7.4, aqueous buffer) [mg/mL] | solubility (physchem; water) [mg/mL] | natural forgetting (mice) | Solubility (% w/v) pH 4.5 ([3]; pH 4.5) [% w/v] | Solubility (% w/v) pH 7.4 ([3]; pH 7.4) [% w/v] | Solubility (% w/v) Water room T ([3]; water at room temperature) [% w/v]
Hydrogen maleate | 90.85 | 90.74 | – | – | – | – | – | – | – | –
Clc1ccc(CCCOCCCN2CCCCC2)cc1.O=C(O)C(=O)O [Hydrogen oxalate, 1-[3-[3-(4-chlorophenyl)propoxy]propyl]-piperidine oxalate, reference compound] | 149.16 | 149.28 | 25 | 10 to 30 | 30 to 100 | 10 to 30 | – | – | – | –
Nc1c2c(nc3ccccc13)CCCC2 [tacrine, reference compound] | – | – | – | – | – | – | significantly reduced | – | – | –
Clc1ccc(CCCOCCCN2CCCCC2)cc1 [Hydrogen succinate] | 63.21 | 63.46 | – | – | – | – | – | >100 | >100 | >100

— patent US8354430B2, “Monohydrochloride salt of 1-[3-[3-(4-chlorophenyl) propoxy]propyl]-piperidine” (priority 2005, dated 2013)
